Here are results for 10 molecules from US11603377B2, “MTORC1 modulators and uses thereof” (Aeovian Pharmaceuticals, Inc., priority 2020, dated 2023).

The structures appear in SMILES notation.

In test [1] the target is FKBP12 (Homo sapiens (Human), UniProt P62942). In words: SPR assay to determine binding affinity to FKBP12 (direct binding). Particulars: immobilized biotinylated avi-FKBP12. (Surface plasmon resonance follows binding to a sensor surface in real time, without labels.)
Test [2] concerns the target FKBP12 / FRB ternary complex (Homo sapiens (Human), UniProt P42345+P62942). In words: SPR assay to characterize ternary complex formation with FKBP12 (FRB binding to rapalog-saturated FKBP12). As to conditions: FRB dilutions with 100 nM rapalog on immobilized FKBP12. An outline of the steps:
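Biotinylated avi-FKBP12 immobilized (~100 RU) on streptavidin chip; A-B-A injections kept FKBP12 saturated with 100 nM rapalog while FRB (0.00011–20 μM, 3-fold, 12 points) was injected 120 s.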

The target of test [3] is mTORC2 (Homo sapiens (Human), UniProt P42345+P62942). The experiment in a line: mTORC2 inhibition, AlphaLISA of Phospho-AKT (pAKT pS473) in PC3 cells. Format: cell-based. (Alpha assays give light when donor and acceptor beads are brought close together.)
Test [4] deals with FKBP51 (Homo sapiens (Human), UniProt Q13451). In words: SPR assay to determine binding affinity to FKBP51 (direct binding). Particulars: immobilized biotinylated avi-FKBP51. An outline of the steps: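 Biotinylated avi-FKBP51 captured on streptavidin chip to about 2000 RU. Compounds injected at 0.5-1000 nM (8 points, 3-fold) for 120 s contact and 3600 s dissociation in 50 mM HEPES pH 7.5, 150 mM NaCl, 2 mM MgCl2, 1 mM DTT, 0.05% Tween-20, 1% DMSO.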

In test [5] the target is FKBP51 / FRB ternary complex (Homo sapiens (Human), UniProt P42345+Q13451). The experiment in a line: SPR assay to characterize ternary complex formation with FKBP51 (FRB binding to rapalog-saturated FKBP51). As to conditions: FRB dilutions with 100 nM rapalog on immobilized FKBP51. An outline of the steps: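 SPR with biotinylated avi-FKBP51 on streptavidin chip (~200 RU); FRB (0.00011-20 μM, 3-fold series) injected with 100 nM rapalog, A-B-A mode keeping FKBP saturated with rapalog.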

Test [6] concerns the target mTORC1 (Homo sapiens (Human), UniProt P42345+P62942). The experiment in a line: mTORC1 inhibition, AlphaLISA of Phospho-p70 S6 kinase (p70S6K pT389) in PC-3 cells. As to conditions: inhibition of p70S6K pT389 levels. The class given is cell-based.

A word on the Kd: it is the free concentration of one partner at which half of the binding sites on the other are occupied at equilibrium, for simple one-to-one binding. Low values mean a tighter complex, high ones a looser complex. What is called IC50 is the midpoint of a concentration-inhibition curve. Read a low IC50 as greater potency.

FKBP51, sequence (Q13451 whole entry): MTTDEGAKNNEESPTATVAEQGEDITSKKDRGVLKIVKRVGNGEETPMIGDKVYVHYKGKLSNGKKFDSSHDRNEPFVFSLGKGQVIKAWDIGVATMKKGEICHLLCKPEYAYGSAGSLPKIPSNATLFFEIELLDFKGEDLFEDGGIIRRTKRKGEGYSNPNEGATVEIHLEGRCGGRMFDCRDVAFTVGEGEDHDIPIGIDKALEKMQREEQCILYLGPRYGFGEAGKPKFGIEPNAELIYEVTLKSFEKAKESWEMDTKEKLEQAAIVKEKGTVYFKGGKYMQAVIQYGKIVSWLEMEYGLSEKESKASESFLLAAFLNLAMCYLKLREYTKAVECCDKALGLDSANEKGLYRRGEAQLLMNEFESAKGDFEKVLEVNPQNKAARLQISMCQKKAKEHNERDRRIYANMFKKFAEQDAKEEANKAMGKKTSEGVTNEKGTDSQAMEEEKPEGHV
FKBP12, sequence (P62942 whole entry): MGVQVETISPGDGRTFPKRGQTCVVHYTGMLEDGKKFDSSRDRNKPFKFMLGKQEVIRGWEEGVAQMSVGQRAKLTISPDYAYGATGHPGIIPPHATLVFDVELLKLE

As for `CCOC(=O)COC1CCC(CC(C)C2CC(=O)C(C)C=C(C)C(O)C(OC)C(=O)C(C)CC(C)C=CC=CC=C(C)C(OCCOC)CC3CCC(C)C(O)(O3)C(=O)C(=O)N3CCCCC3C(=O)O2)CC1OC` (stereo not drawn) [Compound 56], the Kd in test [1] is below 0.3 nM; in test [2], 300 to 800 nM; in test [4] it was above 100 nM; in test [5], above 800 nM. Moreover, the “mTORC2 % inhibition at 1 uM” value in test [3] was “C (C≥40% and less than 60% inhibition at 1 uM)”. Further, in test [6], the IC50 was 0.1 to 0.8 nM.
Take `COCCOC1CC2CCC(C)C(O)(O2)C(=O)C(=O)N2CCCCC2C(=O)OC(C(C)CC2CCC(OCC(=O)O)C(OC)C2)CC(=O)C(C)C=C(C)C(O)C(OC)C(=O)C(C)CC(C)C=CC=CC=C1C` (stereo not drawn) [Compound 57]: the Kd in test [1] was above 1 nM; in test [2], 300 to 800 nM; in test [4] it was 10 to 100 nM; in test [5], above 800 nM. The “mTORC2 % inhibition at 1 uM” value in test [3] was “B (B>20% and less than 40% inhibition at 1 uM)”. Besides, in test [6], the IC50 is above 0.8 nM.
For the molecule `COC1C[C@H]2CC[C@H](C)[C@](O)(O2)C(=O)C(=O)N(C)C(C)C(=O)OC([C@H](C)C[C@@H]2CC[C@@H](OCCCS(C)(=O)=O)[C@H](OC)C2)CC(=O)C(C)/C=C(\C)C(O)C(OC)C(=O)C(C)CC/C=C/C=C/C=C/1C` (stereo partly drawn) [Compound 59], the Kd in test [1] was below 0.3 nM; in test [2] it was below 300 nM; in test [4], 10 to 100 nM; in test [5], 300 to 800 nM. The “mTORC2 % inhibition at 1 uM” value in test [3] is recorded as “D (D≥60% inhibition at 1 uM)”. The molecule also came in with an IC50 in test [6] below 0.1 nM.
In the case of `CO[C@@H]1C[C@H](C[C@@H](C)[C@@H]2CC(=O)[C@H](C)/C=C(\C)[C@@H](O)[C@@H](OC)C(=O)[C@H](C)C[C@H](C)/C=C/C=C/C=C(\C)[C@@H](OCC3CC3)C[C@@H]3CC[C@@H](C)[C@@](O)(O3)C(=O)C(=O)N3CCCC[C@H]3C(=O)O2)CC[C@H]1OCCCS(C)(=O)=O` [Compound 60], the equilibrium dissociation constant (Kd) was above 1 nM in test [1], below 300 nM in test [2], above 100 nM in test [4] and above 800 nM in test [5]. In test [3], the “mTORC2 % inhibition at 1 uM” value is “B (B>20% and less than 40% inhibition at 1 uM)”. This molecule showed an IC50 in test [6] of 0.1 to 0.8 nM.
Turning to `COCCO[C@H]1C[C@@H]2CC[C@@H](C)[C@@](O)(O2)C(=O)C(=O)N2CCCC[C@H]2C(=O)O[C@H]([C@H](C)C[C@@H]2CC[C@@H](OCCCS(C)(=O)=O)[C@H](OC)C2)CC(=O)[C@H](C)/C=C(\C)[C@@H](O)[C@@H](OC)C(=O)[C@H](C)C[C@H](C)/C=C/C=C/C=C/1C` [Compound 61], the Kd in test [1] is below 0.3 nM; in test [2], below 300 nM; in test [4], above 100 nM; in test [5], above 800 nM. Further, in test [3], the “mTORC2 % inhibition at 1 uM” value was “B (B>20% and less than 40% inhibition at 1 uM)”. In test [6], this molecule had an IC50 below 0.1 nM.
On to `CO[C@@H]1C[C@H](C[C@@H](C)[C@@H]2CC(=O)[C@H](C)/C=C(\C)[C@@H](O)[C@@H](OC)C(=O)[C@H](C)C[C@H](C)/C=C/C=C/C=C(\C)[C@@H](OCC3CCC3)C[C@@H]3CC[C@@H](C)[C@@](O)(O3)C(=O)C(=O)N3CCCC[C@H]3C(=O)O2)CC[C@H]1OCCCS(C)(=O)=O` [Compound 62], for which the Kd was above 1 nM in test [1], below 300 nM in test [2], above 100 nM in test [4] and above 800 nM in test [5]. For the same molecule, in test [3], the “mTORC2 % inhibition at 1 uM” value was “C (C≥40% and less than 60% inhibition at 1 uM)”. For the same molecule, in test [6], the IC50 is above 0.8 nM.
As to `CO[C@@H]1C[C@H](C[C@@H](C)[C@@H]2CC(=O)[C@H](C)/C=C(\C)[C@@H](O)[C@@H](OC)C(=O)[C@H](C)C[C@H](C)/C=C/C=C/C=C(\C)[C@@H](OC3CC3)C[C@@H]3CC[C@@H](C)[C@@](O)(O3)C(=O)C(=O)N3CCCC[C@H]3C(=O)O2)CC[C@H]1OCCCS(C)(=O)=O` [Compound 64], the Kd in test [1] was 0.3 to 1 nM; in test [2], below 300 nM; in test [4], above 100 nM; in test [5], below 300 nM. The “mTORC2 % inhibition at 1 uM” value in test [3] was “C (C≥40% and less than 60% inhibition at 1 uM)”. Besides, the 50% inhibitory concentration (IC50) in test [6] lay in the range of 0.1 to 0.8 nM.
Consider `COC1C(=O)C(C)CC/C=C/C=C/C=C(\C)C(CCO)C[C@H]2CC[C@H](C)[C@](O)(O2)C(=O)C(=O)N(C)C(C)C(=O)OC([C@H](C)C[C@@H]2CC[C@@H](OCCCS(C)(=O)=O)[C@H](OC)C2)CC(=O)C(C)/C=C(\C)C1O` (stereo partly drawn) [Compound 67], for which the Kd in test [1] was below 0.3 nM; in test [2] it was 300 to 800 nM; in test [4], 10 to 100 nM; in test [5] it was above 800 nM. Moreover, the “mTORC2 % inhibition at 1 uM” value in test [3] is “B (B>20% and less than 40% inhibition at 1 uM)”. Moreover, the IC50 in test [6] lay in the range of 0.1 to 0.8 nM.
For `CO[C@@H]1C[C@H](C[C@@H](C)[C@@H]2CC(=O)[C@H](C)/C=C(\C)[C@@H](O)[C@@H](OC)C(=O)[C@H](C)C[C@H](C)/C=C/C=C/C=C(\C)[C@@H](OCCCO)C[C@@H]3CC[C@@H](C)[C@@](O)(O3)C(=O)C(=O)N3CCCC[C@H]3C(=O)O2)CC[C@H]1OCCCS(C)(=O)=O` [Compound 68], the dissociation constant Kd in test [1] is below 0.3 nM; in test [2] it was below 300 nM; in test [4], 10 to 100 nM; in test [5], above 800 nM. Also, the “mTORC2 % inhibition at 1 uM” value in test [3] is “C (C≥40% and less than 60% inhibition at 1 uM)”. The molecule further gave an IC50 in test [6] below 0.1 nM.
For `CO[C@@H]1C[C@H](C[C@@H](C)[C@@H]2CC(=O)[C@H](C)/C=C(\C)[C@@H](O)[C@@H](OC)C(=O)[C@H](C)C[C@H](C)/C=C/C=C/C=C(\C)[C@H](OCCCO)C[C@@H]3CC[C@@H](C)[C@@](O)(O3)C(=O)C(=O)N3CCCC[C@H]3C(=O)O2)CC[C@H]1OCCCS(C)(=O)=O` [Compound 69], the Kd in test [1] is 0.3 to 1 nM; in test [2], 300 to 800 nM; in test [4], 10 to 100 nM; in test [5], above 800 nM. Besides, the “mTORC2 % inhibition at 1 uM” value in test [3] is “B (B>20% and less than 40% inhibition at 1 uM)”. The IC50 in test [6] lay in the range of 0.1 to 0.8 nM.
